According to BindingDB's records for doi:10.1021/jm801126a (Cornell University, 2009):

Target: T1, S-adenosylmethionine decarboxylase proenzyme (Homo sapiens, UniProt P17707)
T1 sequence (P17707 whole entry): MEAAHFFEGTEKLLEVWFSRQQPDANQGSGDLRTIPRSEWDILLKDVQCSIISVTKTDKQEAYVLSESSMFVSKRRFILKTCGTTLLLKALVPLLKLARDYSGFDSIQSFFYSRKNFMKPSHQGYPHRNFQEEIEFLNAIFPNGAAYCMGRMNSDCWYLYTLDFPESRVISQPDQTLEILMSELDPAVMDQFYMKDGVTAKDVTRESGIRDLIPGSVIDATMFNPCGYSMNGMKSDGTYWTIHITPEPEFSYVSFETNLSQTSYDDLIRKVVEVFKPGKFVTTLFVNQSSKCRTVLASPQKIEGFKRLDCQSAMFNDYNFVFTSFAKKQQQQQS
Assay: AdoMetDC Inhibition Assay
Protocol: The C-terminal his-tagged AdoMetDC was assayed by measuring the release of 14CO2 from S-adenosyl-L-[carboxy-14C]methionine (Amersham Pharmacia Biotech). For determination of the abilities of compounds to inhibit AdoMetDC, the enzyme activity was determined in the presence of no inhibitor and at least five concentrations of each potential inhibitor. The IC50 values were determined from curve fitting to plots of the inhibitor concentration versus the % inhibition of AdoMetDC.

Structure (SMILES): C[S+](C)C[C@H]1O[C@@H](n2cnc3c(N)ncnc32)[C@H](O)[C@@H]1O [{[(2S,3S,4R,5R)-5-(6-amino-9H-purin-9-yl)-3,4-dihydroxyoxolan-2-yl]methyl}dimethylsulfanium chloride]
- IC50: 15 µM
